Experimental data published in ChEMBL document CHEMBL1126963, “Acid unit modifications of 1,2,4,5-substituted hydroxyacetophenones and the effect on in vitro and in vivo LTB4 receptor antagonism” (Bioorg Med Chem Lett, 1993).
pIC50: −log10 of the molar value.

Assays:
Type in all cases: functional
Cavia porcellus [1] = assay: Potency was evaluated in vivo in a guinea pig model of LTB4-induced airway obstruction upon intravenous administration
Cavia porcellus [2] = assay: Potency was evaluated in vivo in a guinea pig model of LTB4-induced airway obstruction upon oral administration
Homo sapiens = organism: Homo sapiens; assay: Antagonism of LTB4 receptor induced CD11b/CD18 adhesion protein up-regulation in human neutrophil

## CCc1cc(C(C)=O)c(O)cc1OCCCCCC(C)(C)c1nn[nH]n1 [LY-255283]
Cavia porcellus [1]
  ED50: 2.8 mg/kg
Cavia porcellus [2]
  ED50: 11 mg/kg

## CCCc1c(OCCCOc2cc(O)c(C(C)=O)cc2CC)cccc1OC(C)C(=O)O (stereo not drawn)
Homo sapiens
  pIC50: 5.49

## CCCc1c(OCCCOc2cc(O)c(C(C)=O)cc2CC)cccc1OC(CC)C(=O)O (stereo not drawn)
Homo sapiens
  pIC50: 5.71

## CCCc1c(OCCCOc2cc(O)c(C(C)=O)cc2CC)cccc1OCC(=O)O
Homo sapiens
  pIC50: 5.36

## CCCc1c(OCCCOc2cc(O)c(C(C)=O)cc2CC)ccc2c1OC(C(=O)[O-])CC2.[Na+] (stereo not drawn)
Cavia porcellus [1]
  ED50: 0.23 mg/kg
Cavia porcellus [2]
  ED50: 0.5 mg/kg
Homo sapiens
  pIC50: 5.80
